Source: the Kinase Knowledgebase extract (Sharma et al. 2016)

Biological target: PIK3CB;PIK3CG;PIK3CD;PIK3CA (human) (UniProt P48736)
Assay: Enzyme Assay

SMILES	IC50
O=C(c1nn([C@H]2CCCN(CCn3ccnc3)C2)c2c1CS(=O)(=O)c1ccccc1-2)N1CCOCC1	5600 nM
O=C(NC1CCOCC1)c1cccc(-n2nc(C(=O)N3CCOCC3)c3c2-c2ccccc2S(=O)(=O)C3)c1	1260 nM
O=C(c1nn(-c2ccc(-c3ccccc3)cc2)c2c1CS(=O)(=O)c1ccccc1-2)N1CCOCC1	10300 nM
O=C(c1nn(Cc2cnccn2)c2c1CS(=O)(=O)c1ccccc1-2)N1CCOCC1	10700 nM
O=C(c1nn(-c2cccc(CN3CCOCC3)c2)c2c1CS(=O)(=O)c1ccccc1-2)N1CCOCC1	1300 nM
CC(C)(C)C1CCC(n2nc(C(=O)N3CCOCC3)c3c2-c2ccccc2S(=O)(=O)C3)CC1 (stereo unspecified)	4120 nM
COCCOc1cccc(-n2nc(C(=O)N3CCOCC3)c3c2-c2ccccc2S(=O)(=O)C3)c1	726 nM
COC1CN(CCN2CCC[C@H](n3nc(C(=O)N4CCOCC4)c4c3-c3ccccc3S(=O)(=O)C4)C2)C1	20 nM
O=C(c1ccc(-n2nc(C(=O)N3CCOCC3)c3c2-c2ccccc2S(=O)(=O)C3)cc1)N1CCCCC1	238 nM
O=C(c1nn([C@H]2CCCN(c3ccncc3)C2)c2c1CS(=O)(=O)c1ccccc1-2)N1CCOCC1	133 nM
COC1CCCN(C(=O)c2cccc(-n3nc(C(=O)N4CCOCC4)c4c3-c3ccccc3S(=O)(=O)C4)c2)C1 (stereo unspecified)	246 nM
O=C(c1nn(-c2ccccc2)c2c1CS(=O)(=O)c1ccccc1-2)N1CCOCC1	244 nM
O=C(c1nn(-c2ccc(Br)cc2)c2c1CS(=O)(=O)c1ccccc1-2)N1CCOCC1	1120 nM
COc1ccc(Cn2nc(C(=O)N3CCOCC3)c3c2-c2ccccc2S(=O)(=O)C3)cc1	459 nM
NC(=O)c1cccc2c1S(=O)(=O)Cc1c(C(=O)N3CCOCC3)nn(-c3ccccc3)c1-2	7900 nM
O=C(c1nn(CCO)c2c1CS(=O)(=O)c1ccccc1-2)N1CCOCC1	661 nM
CS(=O)(=O)Nc1cccc(-n2nc(C(=O)N3CCOCC3)c3c2-c2ccccc2S(=O)(=O)C3)c1	1780 nM
CC(C)c1ccc(-n2nc(C(=O)N3CCOCC3)c3c2-c2ccccc2S(=O)(=O)C3)cc1	1470 nM
O=C(c1nn([C@H]2CCCN(CCN3CCOCC3)C2)c2c1CS(=O)(=O)c1c(Cl)cccc1-2)N1CCOCC1	30 nM
O=C(c1nn(-c2cccc(CN3CCCC3)c2)c2c1CS(=O)(=O)c1ccccc1-2)N1CCOCC1	516 nM
CC(C)(C)OC(=O)N1CCC(n2nc(C(=O)N3CCOCC3)c3c2-c2ccccc2S(=O)(=O)C3)C1 (stereo unspecified)	1200 nM
COc1ccc2c(c1)S(=O)(=O)Cc1c(C(=O)N3CCOCC3)nn([C@H]3CCCN(CC4CCOC4)C3)c1-2 (stereo partly specified)	44 nM

SMILES	IC50
O=C(c1nn([C@@H]2CCCN(CCN3CCOCC3)C2)c2c1CS(=O)(=O)c1ccccc1-2)N1CCOCC1	1280 nM
O=C(c1nn([C@@H]2CCCN(CCC3CCOCC3)C2)c2c1CS(=O)(=O)c1ccccc1-2)N1CCOCC1	2200 nM
O=C(CC1CCOCC1)N1CCC[C@H](n2nc(C(=O)N3CCOCC3)c3c2-c2ccccc2S(=O)(=O)C3)C1	345 nM
O=C(c1nn(C2CCCN(Cc3ccccc3)C2)c2c1CS(=O)(=O)c1ccccc1-2)N1CCOCC1 (stereo unspecified)	540 nM
O=C(c1nn(Cc2cc(Cl)cs2)c2c1CS(=O)(=O)c1ccccc1-2)N1CCOCC1	624 nM
COc1ccc2c(c1)S(=O)(=O)Cc1c(C(=O)N3CCOCC3)nn([C@H]3CCCN(CCN4CCOCC4)C3)c1-2	24 nM
Nc1ncc(-c2cccc(-n3nc(C(=O)N4CCOCC4)c4c3-c3ccccc3S(=O)(=O)C4)c2)cn1	454 nM
O=C(c1nn([C@H]2CCN(CCN3CCC(F)CC3)C2)c2c1CS(=O)(=O)c1ccccc1-2)N1CCOCC1	55 nM
O=C(c1nn(-c2ccccc2)c2c1CS(=O)(=O)c1cc(C(F)(F)F)ccc1-2)N1CCOCC1	3060 nM
O=C(c1nn(-c2ccc3nn(Cc4ccccc4)cc3c2)c2c1CS(=O)(=O)c1ccccc1-2)N1CCOCC1	2080 nM
COCCN(C)Cc1ccc(-n2nc(C(=O)N3CCOCC3)c3c2-c2ccccc2S(=O)(=O)C3)cc1	113 nM
O=C(c1nn(-c2ccccc2)c2c1NS(=O)(=O)c1ccccc1-2)N1CCOCC1	5500 nM
CCCCNc1ccc2c(c1)S(=O)(=O)Cc1c(C(=O)N3CCOCC3)nn(-c3ccccc3)c1-2	9790 nM
O=C(c1nn(C2CCCN(CCC(F)(F)F)C2)c2c1CS(=O)(=O)c1ccccc1-2)N1CCOCC1 (stereo unspecified)	149 nM
O=C(NC1CCCCC1)N1CCC(n2nc(C(=O)N3CCOCC3)c3c2-c2ccccc2S(=O)(=O)C3)C1 (stereo unspecified)	875 nM
O=C(c1nn(-c2cccc(CN3CCC(F)(F)CC3)c2)c2c1CS(=O)(=O)c1ccccc1-2)N1CCOCC1	560 nM
COc1cccc(Cn2nc(C(=O)N3CCOCC3)c3c2-c2ccccc2S(=O)(=O)C3)c1	1170 nM
O=C(c1nn(-c2ccc3[nH]ncc3c2)c2c1CS(=O)(=O)c1ccccc1-2)N1CCOCC1	1640 nM
Cc1cccc2c1S(=O)(=O)Cc1c(C(=O)N3CCOCC3)nn(-c3ccccc3)c1-2	1740 nM
O=C(c1nn(-c2ccc(CNC3CCCOC3)cc2)c2c1CS(=O)(=O)c1ccccc1-2)N1CCOCC1 (stereo unspecified)	224 nM
CS(=O)(=O)c1ccc(-n2nc(C(=O)N3CCOCC3)c3c2-c2ccccc2S(=O)(=O)C3)cc1	4520 nM
CCC1c2c(C(=O)N3CCOCC3)nn(-c3ccccc3)c2-c2ccccc2S1(=O)=O (stereo unspecified)	2470 nM

SMILES	IC50
COCc1ccc(-n2nc(C(=O)N3CCOCC3)c3c2-c2ccccc2S(=O)(=O)C3)cc1	667 nM
O=C(c1cccc(-n2nc(C(=O)N3CCOCC3)c3c2-c2ccccc2S(=O)(=O)C3)c1)N1CCCC(O)C1 (stereo unspecified)	348 nM
O=C(c1nn(CCc2ccccn2)c2c1CS(=O)(=O)c1ccccc1-2)N1CCOCC1	1920 nM
O=C(c1nn(C2CCOCC2)c2c1CS(=O)(=O)c1sccc1-2)N1CCOCC1	824 nM
COCCCN1CCCC(n2nc(C(=O)N3CCOCC3)c3c2-c2ccccc2S(=O)(=O)C3)CC1 (stereo unspecified)	438 nM
C[C@@H]1CN(CCN2CCC[C@H](n3nc(C(=O)N4CCOCC4)c4c3-c3ccccc3S(=O)(=O)C4)C2)C[C@H](C)O1	65 nM
COCC(=O)N1CCC[C@H](n2nc(C(=O)N3CCOCC3)c3c2-c2ccccc2S(=O)(=O)C3)C1	261 nM
O=C(c1nn(CC2CCCC2)c2c1CS(=O)(=O)c1ccccc1-2)N1CCOCC1	247 nM
O=C(c1nn([C@H]2CCCN(CCC3CCOCC3)C2)c2c1CS(=O)(=O)c1ncccc1-2)N1CCOCC1	16 nM
O=C(c1nn(C2CCCN(C3CCOCC3)C2)c2c1CS(=O)(=O)c1ccccc1-2)N1CCOCC1 (stereo unspecified)	254 nM
O=C(c1nn(Cc2ccccn2)c2c1CS(=O)(=O)c1ccccc1-2)N1CCOCC1	3960 nM
O=C(Nc1cccnc1)c1cccc(-n2nc(C(=O)N3CCOCC3)c3c2-c2ccccc2S(=O)(=O)C3)c1	926 nM
Cc1ccccc1-c1cccc(-n2nc(C(=O)N3CCOCC3)c3c2-c2ccccc2S(=O)(=O)C3)c1	1080 nM
O=C(c1nn(-c2cccc(CN3CCS(=O)(=O)CC3)c2)c2c1CS(=O)(=O)c1ccccc1-2)N1CCOCC1	639 nM
COc1ccc2c(c1)S(=O)(=O)Cc1c(C(=O)N3CCOCC3)nn([C@H]3CCCN(CCC4CCOCC4)C3)c1-2	27 nM
CC1(C)CN(CCN2CCC[C@H](n3nc(C(=O)N4CCOCC4)c4c3-c3ccccc3S(=O)(=O)C4)C2)CCO1	73 nM
Cn1nc(C(=O)N2CCOCC2)c2c1-c1cc(Br)ccc1S(=O)(=O)C2	1040 nM
CN(C)CCN1CCCC(n2nc(C(=O)N3CCOCC3)c3c2-c2ccccc2S(=O)(=O)C3)C1 (stereo unspecified)	72 nM
CS(=O)(=O)NCc1ccc(-n2nc(C(=O)N3CCOCC3)c3c2-c2ccccc2S(=O)(=O)C3)cc1	421 nM
O=C(c1nn(C2CCCN(CCC3CCOCC3)C2)c2c1CS(=O)(=O)c1c(F)cccc1-2)N1CCOCC1 (stereo unspecified)	22 nM
O=C(c1nn([C@@H]2CCCN(CCN3CCOCC3)C2)c2c1CS(=O)(=O)c1c(Cl)cccc1-2)N1CCOCC1	5230 nM
Cc1ccccc1-n1nc(C(=O)N2CCOCC2)c2c1-c1ccccc1S(=O)(=O)C2	2280 nM

SMILES	IC50
CC1CN(Cc2ccc(-n3nc(C(=O)N4CCOCC4)c4c3-c3ccccc3S(=O)(=O)C4)cc2)CC(C)O1 (stereo unspecified)	57 nM
CC(=O)Nc1cccc2c1S(=O)(=O)Cc1c(C(=O)N3CCOCC3)nn(-c3ccccc3)c1-2	9880 nM
NCCN1CCC[C@H](n2nc(C(=O)N3CCOCC3)c3c2-c2ccccc2S(=O)(=O)C3)C1	73 nM
O=C(c1nn([C@H]2CCCN(CCF)C2)c2c1CS(=O)(=O)c1ccccc1-2)N1CCOCC1	200 nM
CN1CCN(C(=O)c2cccc(-n3nc(C(=O)N4CCOCC4)c4c3-c3ccccc3S(=O)(=O)C4)c2)CC1	253 nM
COc1cccc(-n2nc(C(=O)N3CCOCC3)c3c2-c2ccccc2S(=O)(=O)C3)c1	1320 nM
Cn1nc(C(=O)N2CCOCC2)c2c1-c1cccc(F)c1S(=O)(=O)C2	687 nM
O=C(c1nn(C2CCN(CCN3CCOCC3)C2)c2c1CS(=O)(=O)c1ccccc1-2)N1CCOCC1 (stereo unspecified)	192 nM
O=C(c1nn(-c2ccccc2)c2c1C(Cc1ccccc1)S(=O)(=O)c1ccccc1-2)N1CCOCC1 (stereo unspecified)	2480 nM
Cc1noc(C)c1-c1cccc(-n2nc(C(=O)N3CCOCC3)c3c2-c2ccccc2S(=O)(=O)C3)c1	300 nM
O=C(c1nn([C@H]2CCCN(CCN3CC[C@@H](F)C3)C2)c2c1CS(=O)(=O)c1ccccc1-2)N1CCOCC1	32 nM
O=C(c1nn(-c2ccc(Cl)cc2)c2c1CS(=O)(=O)c1ccccc1-2)N1CCOCC1	895 nM
O=C(c1nn(C2CCN(CCn3cccn3)C2)c2c1CS(=O)(=O)c1ccccc1-2)N1CCOCC1 (stereo unspecified)	257 nM
O=C(c1nn(C2CCCN(C3COC3)C2)c2c1CS(=O)(=O)c1ccccc1-2)N1CCOCC1 (stereo unspecified)	67 nM
O=C(c1nn(CCCO)c2c1CS(=O)(=O)c1ccccc1-2)N1CCOCC1	2250 nM
COCCN1CCCC(n2nc(C(=O)N3CCOCC3)c3c2-c2ccccc2S(=O)(=O)C3)CC1 (stereo unspecified)	478 nM
O=C(c1nn(-c2ccc(C3(CN4CCOCC4)CC3)cc2)c2c1CS(=O)(=O)c1ccccc1-2)N1CCOCC1	995 nM
CC(=O)Nc1nc2c(s1)S(=O)(=O)Cc1c(C(=O)N3CCOCC3)nn(C3CCOCC3)c1-2	284 nM
O=C(c1nn(C2CCCN(CCN3CCOCC3)C2)c2c1CS(=O)(=O)c1c(Cl)cccc1-2)N1CCOCC1 (stereo unspecified)	120 nM
COCCNc1ccc2c(c1)-c1c(c(C(=O)N3CCOCC3)nn1-c1ccccc1)CS2(=O)=O	902 nM
